Assays:
[1] = tested on: primary mouse bone marrow-derived macrophages (BMMs); test: Osteoclast formation from BMMs, TRAP staining; type: cell-based; conditions: sRANKL 50 ng/ml, M-CSF 40 ng/ml, 7 days, FIG. 1A
Experimental: (§1) FIGS. 1A-1D are data collected from primary mouse bone marrow-derived macrophages (BMMs) respectively incubated in the medium containing the soluble recombinant RANKL (sRANKL, 50 ng/ml), macrophage colony-stimulating factor (M-CSF, 40 ng/ml) and specified concentrations of MLN4924 for 7 days according to example 1.1 of the present disclosure. FIG. 1A: the photographs of TRAP staining depicting the differentiation of osteoclasts from BMMs. FIG. 1B: after the differentiation of osteoclasts in Corning Osteo Surface (a synthetic 3-dimensional structure that mimics in vivo bone for in vitro bone cell assays), the cells were removed, and the resorbed areas for confirming osteoclast activity were analyzed by 1% toluidine blue staining. FIG. 1C: the culture medium is subject to Biovision Cathepsin K Activity Fluorometric Assay Kit for the analysis of cathepsin K activity. FIG. 1D: the effect of effective doses of MLN4924 on the viability of BMMs is evaluated by MTT assay. Scale bar represents 100 μm. Data are expressed as mean±SD where *p<0.05; **p<0.01.
The pre-osteoclast cells were prepared by mouse bone marrow-derived macrophage (BMM). In brief, the femurs and tibias were obtained from 6-12 week old C57BL/6J female mice. […]

[2] = tested on: JNK (pJNK); test: Western blot, sRANKL-induced JNK phosphorylation in RAW264.7 cells; type: cell-based, mouse; conditions: RAW264.7, 30 min pre-treatment, sRANKL 50 ng/ml, FIG. 3A-3B
Experimental: (§2) FIGS. 3A-3D are data collected from Western blot analysis that respectively depict the expression of specified protein extracted from the RAW264.7 cells, which are pre-treated with specified concentrations of MLN4924 for 30 minutes followed by the stimulation of sRANKL (50 ng/ml) according to example 2 of the present disclosure. FIG. 3A: the time course effect of MLN4924 on the phosphorylations of ERK (pERK), P38 (pP38) and JNK (pJNK). FIG. 3B: the dose effect of MLN4924 on the phosphorylations of ERK (pERK), P38 (pP38) and JNK (pJNK). FIG. 3C: the time course effect of MLN4924 on the expression of NFATc-1. FIG. 3D: the dose effect of MLN4924 on the expression of NFATc-1. Mock: untreated control; R: sRANKL; M: MLN4924.
(§3) The RAW264.7 cells were starved with serum-free medium for six hours and then treated with the specified treatments. At indicated time points, the cells were washed with cold phosphate-buffered saline (PBS) and lysed in RIPA buffer containing complete protease inhibitor cocktail (Roche). The cell lysates were separated by SDS-PAGE followed by Western blotting with the indicated antibodies, including NEDD8, APPBP1, UBA3.
Specifically, the inhibitory effect increased with an increase in the MLN4924 concentration (FIG. 3B).

[3] = tested on: NFATc-1; test: Western blot, sRANKL-induced NFATc-1 expression in RAW264.7 cells; type: cell-based, mouse; conditions: RAW264.7, 30 min pre-treatment, sRANKL 50 ng/ml, FIG. 3C-3D
Experimental: as §2, §3
In addition, ectopic expression of NFATc-1 in the pre-osteoclasts rendered the pre-osteoclast differentiated to osteoclasts in the absence of RANKL. […]

[4] = tested on: primary mouse bone marrow-derived macrophages (BMMs); test: Pit assay on Corning Osteo Surface, BMM-derived osteoclasts; type: cell-based; conditions: M-CSF, sRANKL, 7 days, FIG. 1B
Experimental: as §1
The pre-osteoclasts and RAW264.7 cells were seeded into Corning Osteo Surface Assay 96-wells plate (Corning, Kennebunk, Me.). […]
The effect of MLN4924 on the activity of osteoclast was then confirmed by pit assay. […] The resorbing areas on bone matrix by osteoclasts were visualized by 1% toluidine blue staining and quantified by image software.

[5] = tested on: primary mouse bone marrow-derived macrophages (BMMs); test: Viability of BMMs (WST / MTT assay); type: cell-based; conditions: doses that inhibit osteoclast differentiation, FIG. 1D
Experimental: as §1, with “**p<0.01. Next, the WST assay was used to determine whether the suppressed osteoclastogenesis by MLN4924 was caused by cytotoxicity.” for “**p<0.01.”

## NS(=O)(=O)OC[C@@H]1C[C@@H](n2ccc3c(N[C@H]4CCc5ccccc54)ncnc32)C[C@@H]1O [MLN4924, (1S,2S,4R)-4-(4-((1S)-2,3-Dihydro-1H-inden-1-ylamino)-7H-pyrrolo(2,3-d)pyrimidin-7-yl)-2-hydroxycyclopentyl) methyl sulphamate]
[1]
  sRANKL-mediated osteoclast formation (TRAP staining): obviously suppressed the sRANKL-mediated osteoclast formation in a dose-dependent manner
[2]
  sRANKL-upregulated phosphorylation of JNK (pJNK): inhibited
[3]
  expression of NFATc-1 induced by sRANKL: significant suppressed
[4]
  resorbing activity of osteoclasts (pit assay, toluidine blue): suppressed the resorbing activity of osteoclasts in a dose-dependent manner
[5]
  cytotoxicity / viability of BMMs: no cytotoxic effects at doses that effectively inhibited osteoclast differentiation

— patent US10285994B2, “Method of preventing or treating osteoporosis by neddylation inhibitor” (Chang Gung University, priority 2017, dated 2019)
